In PMC11858205, “Radiolabeling and Preliminary In Vivo Evaluation of the Candidate CCR2 Targeting PET Radioligand [^11C]AZD2423” (Pharmaceuticals, 2025):

Experiments:
[1] = parameters: method as in PMID 23523116, PMID 29913894; conditions: no method in this paper; cited from earlier work
[2] = parameters: method as in PMID 26116114; conditions: brain tissue in vitro; cited from earlier work
[3] = tested on: CCR2; parameters: method as in PMID 23523116, PMID 29913894; conditions: no method in this paper; read-out: CCR2 IC50 (affinity); cited from earlier work
[4] = tested on: CCR2; parameters: method as in PMID 33205603; conditions: cited from earlier work
[5] = Radiometabolite analysis in arterial plasma; assay type: in vivo, rhesus monkeys
Description: To measure parent radioligand and radiometabolites in plasma, discrete arterial blood samples were drawn at five time points after the injection of [^11C]AZD2423. The radioligand was metabolized rather slowly (Figure 5). At 10 min after injection, approximately 80% of the radioactivity in plasma represented parent radioligand, decreasing to approximately 60% at 90 min. Most radiometabolites detected in plasma eluted with a retention time (tR) of 2.1–2.7 min and were thus less lipophilic than [^11C]AZD2423 (tR = 3.0 min). However, one metabolite with a longer retention time (tR = 3.5 min) was formed (see Supporting Information). These metabolites were not identified and further work would be required to fully characterize these unknown radiometabolites. […]
Two PET measurements were performed on the same experimental day in each of the two monkeys. […] Radioactivity in the brain was continuously measured for 123 min using the high-resolution research tomograph (HRRT; Siemens Molecular Imaging, Knoxville, TN, USA), following a preprogrammed sequence of 34 frames. Arterial blood samples were collected at specified time points (4, 15, 30, 45, and 90 min) and analyzed for radioactivity in blood and plasma, as well as for the presence of the remaining parent compound, [^11C]AZD2423.
Method description and representative radioactivity HPLC trace for radiometabolite analysis. […]

[6] = tested on: CCR5; parameters: method as in PMID 23523116, PMID 29913894; conditions: no method in this paper; cited from earlier work
[7] = Stability of the radioligand in formulation; assay type: physicochemical; conditions: 9% ethanol in PBS, pH 7.4
Description: Carbon-11 labeled radioligands for in vivo PET imaging studies are typically produced in giga-becquerel quantities. As our goal was to develop a synthesis methodology suitable for routine radioligand production, the [^11C]AZD2423 synthesis process was fully automated to improve its reliability and reproducibility. The complete process was performed using a previously described [^11C]CO prototype synthesis apparatus (GEMS, Uppsala, Sweden), which included the initial formation of the crude [^11C]AZD2423 product, followed by its isolation by semipreparative high-performance liquid chromatography (HPLC), solid-phase extraction (SPE), and sterile filtration to yield the formulated product. Using these conditions, [^11C]AZD2423 was prepared with radioactivities exceeding 1 GBq and the radiochemical purity (RCP) was greater than 99%. The synthesis process took approximately 40 min, and the molar activity (Am) at the time of injection ranged from 15 to 20 GBq/μmol (405 to 540 Ci/mmol). […] The average radiochemical yield for the synthesis of [^11C]AZD2423 was 7.4 ± 0.6% (n = 4, relative to the [^11C]CO2 at the start of synthesis). The identity of the labeled compound was verified by co-injecting it with a reference standard.

[8] = tested on: Other GPCR; parameters: method as in PMID 23523116, PMID 29913894; conditions: no method in this paper; cited from earlier work
[9] = target: T1, CCR2 (Macaca mulatta, UniProt O18793); experiment: PET imaging in non-human primates at baseline and after pretreatment with AZD2423; assay type: in vivo, rhesus monkeys; conditions: for SUVpeak brain: iv; for Average VT parotid gland / Average VT thyroid gland: two-tissue compartment analysis
T1 construct: from tissue; host or cells: living rhesus monkeys: brain, thyroid gland, parotid gland, submandibular gland
T1 sequence (O18793 1-360): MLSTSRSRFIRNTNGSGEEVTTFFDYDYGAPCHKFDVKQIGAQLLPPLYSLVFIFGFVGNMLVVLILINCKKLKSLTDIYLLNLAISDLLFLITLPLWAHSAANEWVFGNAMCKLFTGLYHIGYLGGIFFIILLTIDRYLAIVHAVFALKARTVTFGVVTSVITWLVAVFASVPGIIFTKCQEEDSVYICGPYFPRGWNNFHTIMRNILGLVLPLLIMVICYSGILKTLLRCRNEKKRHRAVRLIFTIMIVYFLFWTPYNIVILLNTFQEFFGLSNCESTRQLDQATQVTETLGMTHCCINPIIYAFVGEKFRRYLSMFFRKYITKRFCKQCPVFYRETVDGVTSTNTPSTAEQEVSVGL
Description: To evaluate the brain exposure and regional distribution of [^11C]AZD2423 in non-human primate (NHP) brains, PET imaging studies were carried out. Thus, two 123 min dynamic brain PET measurements were performed at baseline and after pretreatment with unlabeled AZD2423 (3 mg/kg), respectively.
PET experiments were conducted on two anesthetized healthy rhesus monkeys weighing 5.3 and 4.7 kg. The study received approval from the Stockholm Animal Research Ethical Committee (Dnr. N452/11) and is comprehensively described in Dahl et al.. Anesthesia was induced via an intramuscular injection of ketamine hydrochloride (approximately 10 mg/kg, Ketalar, Pfizer AB, Stockholm, Sweden) and maintained with a mixture of sevoflurane (2–8%, Abbott Scandinavia AB, Solna, Sweden), oxygen (around 40%), and medical air following endotracheal intubation. The anesthesia level was continuously monitored during the experiment. The head was stabilized using a fixation device, and the body temperature was regulated with a Bair Hugger model 505 (Arizant Healthcare, St. Paul, MN, USA), with continuous monitoring via an esophageal thermometer. ECG, heart rate, blood pressure, respiratory rate, and oxygen saturation were all continuously monitored throughout the experiments.
Two PET measurements were performed on the same experimental day in each of the two monkeys. Baseline PET measurements were conducted using [^11C]AZD2423 with doses of 164 MBq and 157 MBq. A pretreatment PET measurement was also performed, during which an infusion of unlabeled AZD2423 (3.0 mg/kg) occurred over 10 min, starting 30 min before the injection of [^11C]AZD2423 (90 MBq and 158 MBq). In each PET experiment, the radioligand was administered as an intravenous bolus injection over 5 s, coinciding with the start of PET data acquisition. Radioactivity in the brain was continuously measured for 123 min using the high-resolution research tomograph (HRRT; Siemens Molecular Imaging, Knoxville, TN, USA), following a preprogrammed sequence of 34 frames. Arterial blood samples were collected at specified time points (4, 15, 30, 45, and 90 min) and analyzed for radioactivity in blood and plasma, as well as for the presence of the remaining parent compound, [^11C]AZD2423.
The Regions of Interest (ROIs) were delineated manually on MRI images of each NHP for the whole brain, thyroid gland, parotid gland, and submandibular gland. The summed PET images of the entire duration were co-registered with the MRI image of the individual NHP. After applying the co-registration parameters to the dynamic PET data, time–activity curves were generated for all ROIs for each PET measurement. The average SUV was calculated for each ROI. Target occupancy was estimated using the volume of distribution (VT) calculated by a two-tissue compartment model (2TC) with metabolite-corrected plasma radioactivity.

[10] = tested on: CCR1; parameters: method as in PMID 23523116, PMID 29913894; conditions: no method in this paper; cited from earlier work
[11] = pretreatment AZD2423 3 mg/kg relative to baseline
[12] = pretreatment AZD2423 3.0 mg/kg relative to baseline
[13] = pretreatment AZD2423 3 mg/kg, n = 2

CC(C)(C)N1CCNC(C(=O)N2CCN(C(=O)Nc3ccc(Cl)c(F)c3)CC2)C1 (stereo not drawn) [AZD2423]
LogD [1]: 1.85
Fu (brain) / brain slice distribution [2]: 0.045
IC50 [3]: 2.6 nM

CN(CCc1ccc(NC(=O)C2=Cc3cc(-c4ccc(OCCCCC[18F])cc4)ccc3CCC2)cc1)C1CCOCC1 [[^18F]6b]
in vitro affinity to CCR2 [4]: 14 nM

CC(C)(C)N1CCNC(C(=O)N2CCN([11C](=O)Nc3ccc(Cl)c(F)c3)CC2)C1 (stereo not drawn) [[^11C]AZD2423]
Parent radioligand, share of radioactivity in plasma ([5]; 10 min after iv injection): approximately 80%
Parent radioligand, share of radioactivity in plasma ([5]; 90 min after iv injection): approximately 60%
IC50 [6]: > 510 nM
LogD [1]: 1.85
pKa [1]: 7.9
stability in formulation [7]: up to 60 min
Selectivity over other GPCR [8]: > 500 fold
SUVpeak brain ([9]; NHP, after pretreatment with unlabeled AZD2423 3 mg/kg, n = 2): 0.4
SUVpeak brain ([9]; NHP, baseline, n = 2): 0.4
SUVpeak parotid gland ([9]; NHP, baseline, n = 2): 3.4
SUVpeak submandibular gland ([9]; NHP, baseline, n = 2): 4.4
SUVpeak thyroid gland ([9]; NHP, baseline, n = 2): 3.3
Average VT parotid gland ([9]; baseline, n = 2): 111.1
Average VT thyroid gland ([9]; baseline, n = 2): 53.1
Percentage decrease of VT parotid gland [9, 11]: 62.6%
Percentage decrease of VT thyroid gland [9, 11]: 63.4%
Percentage reduction of binding in the parotid gland (AUC ratio) [9, 12]: 51.2%
Percentage reduction of binding in the submandibular gland (AUC ratio) [9, 12]: 49%
Average VT parotid gland [9, 13]: 41.6
Average VT thyroid gland [9, 13]: 19.4
Fu (brain) / brain slice distribution [2]: 0.045
IC50 [10]: > 10000 nM
IC50 [3]: 2.6 nM
